Active and inactive are the calls of the source. The calls are words filed in the database; no cut-off is given here.
How the values were obtained:
Mus musculus [1] = assay: General behavior in mice after oral administration (500 mg/kg) using acute toxicity assay; Convulsions; assay type: functional, organism-based
Mus musculus [2] = species: Mus musculus; assay: Analgesic activity in mice using p-phenylquinone test.; assay type: functional
[3] = Percent mortality in mice after oral administration (500 mg/kg) using acute toxicity assay; assay type: organism-based; conditions: mouse, in vivo
Rattus norvegicus [4] = assay: Anti-inflammatory effect expressed as % inhibition at 50 mg/kg in acute carrageenan paw edema test in rats; assay type: functional
Mus musculus [5] = assay: General behavior in mice after oral administration (1000 mg/kg) using acute toxicity assay; Normal; assay type: functional, organism-based
[6] = Percent mortality in mice after oral administration (1000 mg/kg) using acute toxicity assay; assay type: organism-based; conditions: mouse, in vivo
Rattus norvegicus [7] = assay: Anti-inflammatory effect expressed as % inhibition at 50 mg/kg in acute carrageenan paw edema test in rats; No inhibition; assay type: functional, organism-based; parameters: dose 50 mg/kg
Mus musculus [8] = assay: General behavior in mice after oral administration (750 mg/kg) using acute toxicity assay; Convulsions; assay type: functional, organism-based
[9] = Percent mortality in mice after oral administration (750 mg/kg) using acute toxicity assay; assay type: organism-based; conditions: mouse, in vivo
Mus musculus [10] = assay: General behavior in mice after oral administration (1000 mg/kg) using acute toxicity assay; Convulsions; assay type: functional, organism-based
Rattus norvegicus [11] = assay: Anti-inflammatory effect expressed as % inhibition at 100 mg/kg in acute carrageenan paw edema test in rats; No inhibition; assay type: functional, organism-based; parameters: dose 100 mg/kg
Rattus norvegicus [12] = assay: Anti-inflammatory effect expressed as % inhibition at 100 mg/kg in acute carrageenan paw edema test in rats; assay type: functional
Mus musculus [13] = assay: General behavior in mice after oral administration (1000 mg/kg) using acute toxicity assay; decreased locomotor activity, increased muscular tonus; assay type: functional, organism-based
Mus musculus [14] = assay: General behavior in mice after oral administration (500 mg/kg) using acute toxicity assay; Increased muscular tonus; assay type: functional, organism-based
Mus musculus [15] = assay: General behavior in mice after oral administration (1000 mg/kg) using acute toxicity assay; normal; assay type: functional, organism-based
Mus musculus [16] = assay: General behavior in mice after oral administration (1000 mg/kg) using acute toxicity assay; convulsions; assay type: functional, organism-based
Mus musculus [17] = assay: General behavior in mice after oral administration (1000 mg/kg) using acute toxicity assay; decreased muscular tonus; assay type: functional, organism-based
Mus musculus [18] = assay: General behavior in mice after oral administration (1000 mg/kg) using acute toxicity assay; decreased locomotor activity, decreased muscular tonus; assay type: functional, organism-based
Mus musculus [19] = assay: General behavior in mice after oral administration (1000 mg/kg) using acute toxicity assay; Increased locomotor activity, convulsive tendency; assay type: functional, organism-based
Mus musculus [20] = assay: General behavior in mice after oral administration (1000 mg/kg) using acute toxicity assay; sedation, decreased muscular tonus; assay type: functional, organism-based
Mus musculus [21] = assay: General behavior in mice after oral administration (1000 mg/kg) using acute toxicity assay; Increased muscular tonus; assay type: functional, organism-based

Structure (SMILES) | ED50 (Mus musculus [2]) [mg/kg] | inhibition in vivo at 50 mg/kg (Rattus norvegicus [4]) [%] | mortality [6] [%] | further results
O=c1oc2cccnc2n1CN1CCN(c2ccc(Cl)cc2)CC1 | 10.6 | 23 |  | Behavior (Mus musculus [1]): Convulsions; mortality [3]: 90%
O=c1oc2ccccc2n1CCN1CCN(c2cccc(C(F)(F)F)c2)CC1 | 30.2 |  | 0 | Behavior (Mus musculus [5]): Normal; inhibition (Rattus norvegicus [7]): inactive
COc1ccc2c3c1O[C@H]1[C@@H](O)C=C[C@H]4[C@@H](C2)N(C)CC[C@@]341 [CODEINE] | 9.7 | 20 |  | Behavior (Mus musculus [8]): Active; mortality [9]: 40%
O=c1oc2cccnc2n1CN1CCN(c2ccccc2Cl)CC1 | 22.2 |  |  | Behavior (Mus musculus [1]): Convulsions; mortality [3]: 100%; inhibition (Rattus norvegicus [7]): inactive
CN1CCN(CCn2c(=O)oc3cccnc32)CC1 | > 25 |  | 50 | Behavior (Mus musculus [10]): Convulsions; inhibition (Rattus norvegicus [11]): inactive
Cc1ccc2oc(=O)n(CCN3CCN(c4ccccc4)CC3)c2n1 | > 50 |  | 0 | Behavior (Mus musculus [5]): Normal; inhibition in vivo at 100 mg/kg (Rattus norvegicus [12]): 2%
COc1ccccc1N1CCN(Cn2c(=O)oc3cccnc32)CC1 | > 25 | 15 |  | Behavior (Mus musculus [1]): Convulsions; mortality [3]: 100%
O=c1oc2cccnc2n1CCN1CCN(c2ccccc2)CC1 | 19.4 | 13 | 0 | Behavior (Mus musculus [5]): Normal
COc1ccccc1N1CCN(CCn2c(=O)oc3cccnc32)CC1 | > 50 |  | 0 | Behavior (Mus musculus [5]): Normal; inhibition (Rattus norvegicus [11]): inactive
O=c1oc2cccnc2n1CCN1CCN(c2ccc(Cl)cc2)CC1 | > 50 |  | 0 | Behavior (Mus musculus [13]): decreased locomotor activity, increased muscular tonus
O=c1oc2cccnc2n1CN1CCN(c2cccc(C(F)(F)F)c2)CC1 | 3.6 | 25 |  | Behavior (Mus musculus [14]): Increased muscular tonus; mortality [3]: 50%
O=c1oc2cccnc2n1CCN1CCN(c2ccc(Oc3ccccc3)cc2)CC1 | > 50 |  | 0 | Behavior (Mus musculus [15]): normal
O=c1oc2cccnc2n1CN1CCN(c2ccc(F)cc2)CC1 | 3.5 |  |  | Behavior (Mus musculus [1]): Convulsions; mortality [3]: 100%
O=c1oc2cccnc2n1CCCN1CCN(c2cccc(C(F)(F)F)c2)CC1 | 22 |  | 50 | Behavior (Mus musculus [16]): convulsions; inhibition (Rattus norvegicus [7]): inactive
O=c1oc2cccnc2n1CCN1CCCCC1 | > 25 |  | 66 | Behavior (Mus musculus [16]): convulsions; inhibition in vivo at 100 mg/kg (Rattus norvegicus [12]): 21%
O=c1oc2cccnc2n1CCN1CCN(c2ccc(F)cc2)CC1 | 41.3 | 16 | 0 | Behavior (Mus musculus [17]): decreased muscular tonus
CCN(CC)CCn1c(=O)oc2cccnc21 | > 25 |  | 83 | Behavior (Mus musculus [10]): Convulsions
O=c1oc2cccnc2n1CCCN1CCN(c2ccccc2)CC1 | 15.5 | 16 | 10 | Behavior (Mus musculus [18]): decreased locomotor activity, decreased muscular tonus
O=c1oc2cccnc2n1CCN1CCN(c2cccc(C(F)(F)F)c2)CC1 | 11.4 |  | 0 | Behavior (Mus musculus [19]): Increased locomotor activity, convulsive tendancy; inhibition (Rattus norvegicus [7]): inactive
O=c1oc2cccnc2n1CCCCN1CCN(c2ccccc2)CC1 | > 25 |  | 100 | Behavior (Mus musculus [10]): Convulsions
O=c1oc2cc(Br)cnc2n1CCN1CCN(c2ccccc2)CC1 | 34.1 |  | 0 | Behavior (Mus musculus [15]): normal
O=c1oc2cccnc2n1CN1CCN(c2ccccc2)CC1 | 5.9 | 11 |  | Behavior (Mus musculus [1]): Convulsions; mortality [3]: 70%
O=C(OCC(O)CO)c1ccccc1Nc1ccnc2cc(Cl)ccc12 (stereo not drawn) [GLAFENINE] | 29.3 | 36 | 30 | Behavior (Mus musculus [5]): inactive
O=c1oc2ccccc2n1CCN1CCN(c2ccccc2)CC1 | > 50 | 1 | 0 | Behavior (Mus musculus [20]): sedation, decreased muscular tonus
O=c1oc2cccnc2n1CCN1CCOCC1 | > 25 |  | 50 | Behavior (Mus musculus [21]): Increased muscular tonus; inhibition in vivo at 100 mg/kg (Rattus norvegicus [12]): 7%
O=c1oc2cccnc2n1CN1CCN(c2cccc(Cl)c2)CC1 | 10.5 | 27 |  | Behavior (Mus musculus [1]): Convulsions; mortality [3]: 100%

Source: ChEMBL document CHEMBL1126598, “Novel nonopioid non-antiinflammatory analgesics: 3-(aminoalkyl)- and 3-[(4-aryl-1-piperazinyl)alkyl]oxazolo[4,5-b]pyridin-2(3H)-ones” (J Med Chem, 1993)
